Assay results taken from patent US9238697B2, “Polymeric materials and methods” (The Regents of the University of California, priority 2005, dated 2016).
Non-standard residues stand in square brackets, D forms with d. Residues, ends and D or L forms follow the SMILES beside them. ξ: configuration not given here. *: point of attachment. Boc = CC(C)(C)OC(=O)*; ξK = NCCCCC(N)C(=O)O

Test: Solubility of peptide monomer
Type: physicochemical
Conditions: water, or water/solvent mixtures
Protocol: As described further below, Poly 1-3 were tested for gene delivery applications. As contemplated structures are highly adaptable, structural variations can be made with relative ease to optimize gene transfection levels while maintaining relatively low levels of cytotoxicity. Initial manipulations were performed involving lengthening the peptidyl monomer sequence with additional L-lysine residues to thereby increase the charge density of the polymer overall and to thereby offer stronger DNA binding. It should be recognized that where increased charge density improves the gene transfectability of the polymer system, more residues can be added until an optimal length is found. […] For this reason, solution phase polymerizations were attempted to yield small polymer chains and cyclic structures. One example of cyclic structures is given in Structure VI below.

solubility: insoluble
Compound: COC(=O)[C@H](CCCCN)NC(=O)C(CCCCNC(=O)OC(C)(C)C)NC(=O)C(CCCCNC(=O)OC(C)(C)C)NC(=O)C(CCCCNC(=O)OC(C)(C)C)NC(=O)[C@H](CCCCN)NC(=O)OC(C)(C)C (stereo partly shown) [pentalysine monomer] (Boc-K[ξK](Boc)[ξK](Boc)[ξK](Boc)K-OMe)
